What all share (experiment): ≥ marks a high value that may be exact or a test limit, other limits are often not marked, values filed in µg/mL are converted to µM
Experiment [1] has as its system Staphylococcus aureus AB6538.
For experiment [2], the system named is Escherichia coli ATCC 25922.
The test system of experiment [3] is Escherichia coli AB94012.
The test system of experiment [4] is Pseudomonas aeruginosa ATCC 27853.
The subject of experiment [5] is Pseudomonas aeruginosa ATCC 9027.
Experiment [6] deals with Staphylococcus aureus ATCC 6538.
For experiment [7], the system named is Micrococcus luteus ATCC 9341.
The subject of experiment [8] is Staphylococcus epidermidis ATCC 12228.
Experiment [9] concerns Shigella flexneri ATCC 203.
Experiment [10] deals with Staphylococcus aureus.
In experiment [11] the test system is Escherichia coli ATCC 2592.
For experiment [12], the system named is Candida albicans ATCC 36232.
In experiment [13] the test system is Proteus vulgaris ATCC 6380.
Experiment [14] concerns Escherichia coli KACC 1039.
The subject of experiment [15] is Staphylococcus aureus KACC 10196.
Experiment [16] deals with Enterococcus faecalis KACC 11304.
For experiment [17], the system named is Candida albicans KACC 30071.
Experiment [18] deals with Bacillus subtilis KACC 10196.
Experiment [19] has as its system Klebsiella pneumoniae KCTC 2242.
Experiment [20] deals with Pseudomonas aeruginosa KACC 10259.
For experiment [21], the system named is Escherichia coli NBRC 14237.
Experiment [22] relates to Staphylococcus aureus NBRC 12732.
Experiment [23] concerns Saccharomyces cerevisiae NBRC 10217.

The source of these data is DBAASP.

Converted amounts (≈) assume the structure as drawn.

By MIC is commonly meant the lowest concentration that inhibits growth of the organism. Read a low MIC as inhibition by little substance. On to `CC[C@H](C)[C@H](NC(=O)[C@H](CCCCN)NC(=O)[C@@H]1CCCN1C(=O)[C@H](CC(C)C)NC(=O)[C@@H](NC(=O)[C@H](CCCCN)NC(=O)[C@H](CCCCN)NC(=O)[C@H](CC(C)C)NC(=O)[C@@H](NC(=O)[C@H](CCCCN)NC(=O)[C@H](CCCCN)NC(=O)[C@H](CC(C)C)NC(=O)[C@H](CC(C)C)NC(=O)[C@H](CCCCN)NC(=O)[C@H](CC(C)C)NC(=O)[C@@H](N)Cc1ccccc1)C(C)C)C(C)C)C(=O)N[C@@H](Cc1ccccc1)C(=O)N[C@@H](CCCCN)C(N)=O` [FLKLLKKVLKKVLPKIFK], for which the MIC in experiment [1] was determined as 2.86 µM (≈ 6.25 µg/mL); in experiment [2], 2.86 µM (≈ 6.25 µg/mL); in [3] it was 2.86 µM (≈ 6.25 µg/mL); in [4], 5.72 µM (≈ 12.5 µg/mL); in experiment [5], 5.72 µM (≈ 12.5 µg/mL).

For the compound `CC(C)[C@H](NC(=O)[C@H](CCCCN)NC(=O)[C@@H](N)CCCCN)C(=O)N[C@H](C(=O)N[C@@H](Cc1ccccc1)C(=O)N[C@@H](CCCCN)C(=O)N[C@@H](Cc1ccccc1)C(=O)N[C@@H](CCCCN)C(=O)N[C@@H](Cc1ccccc1)C(=O)N[C@@H](CCCCN)C(N)=O)C(C)C` [KKVVFKFKFK], the MIC in [6] is 2.4 µM (≈ 3.12 µg/mL); in [7] it was 0.601 µM (≈ 0.779 µg/mL); in [8] it was 0.601 µM (≈ 0.779 µg/mL); in experiment [9] it was 2.4 µM (≈ 3.12 µg/mL); in [10], 4.81 µM (≈ 6.25 µg/mL); in [11], 2.4 µM (≈ 3.12 µg/mL). In addition, the results for the MIC in [12], in [13] and in experiment [5] were 0.601 µM (≈ 0.779 µg/mL), at least 77 µM and 2.4 µM (≈ 3.12 µg/mL), respectively.

Regarding `CC[C@H](C)[C@H](NC(=O)[C@H](CO)NC(=O)[C@@H](NC(=O)[C@H](CCCCN)NC(=O)[C@H](Cc1ccccc1)NC(=O)[C@@H]1CCCN1C(=O)[C@H](CCCCN)NC(=O)[C@H](CCCCN)NC(=O)[C@H](Cc1ccccc1)NC(=O)[C@@H](NC(=O)[C@H](CCCCN)NC(=O)[C@H](Cc1c[nH]c2ccccc12)NC(=O)[C@@H](N)CCCN=C(N)N)[C@@H](C)CC)[C@@H](C)CC)C(=O)N[C@@H](Cc1cnc[nH]1)C(=O)N[C@@H](CC(C)C)C(N)=O` [RWKIFKKPFKISIHL], the minimal inhibitory concentration (MIC) in experiment [14] was determined as 1 µM (≈ 1.94 µg/mL); in experiment [15] it was 4 µM (≈ 7.76 µg/mL); in experiment [16], 4 µM (≈ 7.76 µg/mL); in [17], 4 µM (≈ 7.76 µg/mL); in experiment [18] it was 1 µM (≈ 1.94 µg/mL); in experiment [19] it was 1 µM (≈ 1.94 µg/mL). This compound returned an MIC in experiment [20] of 1 µM (≈ 1.94 µg/mL).

In the case of `CC(C)C[C@H](NC(=O)[C@H](CO)NC(=O)[C@H](CO)NC(=O)[C@H](CCCN=C(N)N)NC(=O)[C@H](CCCN=C(N)N)NC(=O)[C@H](CCCN=C(N)N)NC(=O)[C@H](CO)NC(=O)[C@H](CC(C)C)NC(=O)[C@H](Cc1c[nH]c2ccccc12)NC(=O)[C@@H](N)Cc1c[nH]c2ccccc12)C(=O)N[C@@H](Cc1ccccc1)C(=O)N[C@@H](Cc1ccc(O)cc1)C(=O)N[C@@H](Cc1c[nH]c2ccccc12)C(=O)N[C@@H](CCCN=C(N)N)C(=O)O` [WWLSRRRSSLFYWR], the values for the MIC in experiment [21], in [22] and in experiment [23] were 3.12 µM (≈ 6.25 µg/mL), 3.12 µM (≈ 6.25 µg/mL) and 12.5 µM (≈ 25 µg/mL), respectively.
